What was measured:
RPMI-8226 = assay: cells; assay type: functional, cell-based; settings: Homo sapiens; for GI50: RPMI-8226, time 72 hrs
HL-60(TB) = assay: Antiproliferative activity against human HL-60(TB) cells assessed as cell growth inhibition incubated for 72 hrs by alamar blue dye based assay; assay type: functional
K562 = assay: Antiproliferative activity against human K562 cells assessed as cell growth inhibition incubated for 72 hrs by alamar blue dye based assay; assay type: functional
MOLT-4 = assay: Antiproliferative activity against human MOLT-4 cells assessed as cell growth inhibition incubated for 72 hrs by alamar blue dye based assay; assay type: functional
SR = assay: Antiproliferative activity against human SR cells assessed as cell growth inhibition incubated for 72 hrs by alamar blue dye based assay; assay type: functional
A549 = assay: Antiproliferative activity against human A549 cells assessed as cell growth inhibition incubated for 72 hrs by alamar blue dye based assay; assay type: functional
EKVX = assay: Antiproliferative activity against human EKVX cells assessed as cell growth inhibition incubated for 72 hrs by alamar blue dye based assay; assay type: functional
HOP-62 = assay: Antiproliferative activity against human HOP-62 cells assessed as cell growth inhibition incubated for 72 hrs by alamar blue dye based assay; assay type: functional
NCI-H226 = assay: Antiproliferative activity against human NCI-H226 cells assessed as cell growth inhibition incubated for 72 hrs by alamar blue dye based assay; assay type: functional
NCI-H23 = assay: Antiproliferative activity against human NCI-H23 cells assessed as cell growth inhibition incubated for 72 hrs by alamar blue dye based assay; assay type: functional
NCI-H322M = assay: Antiproliferative activity against human NCI-H322M cells assessed as cell growth inhibition incubated for 72 hrs by alamar blue dye based assay; assay type: functional
NCI-H522 = assay: Antiproliferative activity against human NCI-H522 cells assessed as cell growth inhibition incubated for 72 hrs by alamar blue dye based assay; assay type: functional
COLO 205 = assay: Antiproliferative activity against human COLO 205 cells assessed as cell growth inhibition incubated for 72 hrs by alamar blue dye based assay; assay type: functional
HCT-116 = assay: Antiproliferative activity against human HCT-116 cells assessed as cell growth inhibition incubated for 72 hrs by alamar blue dye based assay; assay type: functional
HCT-15 = assay: Antiproliferative activity against human HCT-15 cells assessed as cell growth inhibition incubated for 72 hrs by alamar blue dye based assay; assay type: functional
HT-29 = assay: Antiproliferative activity against human HT-29 cells assessed as cell growth inhibition incubated for 72 hrs by alamar blue dye based assay; assay type: functional
KM12 = assay: Antiproliferative activity against human KM12 cells assessed as cell growth inhibition incubated for 72 hrs by alamar blue dye based assay; assay type: functional
SW-620 = assay: Antiproliferative activity against human SW620 cells assessed as cell growth inhibition incubated for 72 hrs by alamar blue dye based assay; assay type: functional
SF-268 = assay: Antiproliferative activity against human SF-268 cells assessed as cell growth inhibition incubated for 72 hrs by alamar blue dye based assay; assay type: functional
SF-295 = assay: Antiproliferative activity against human SF-295 cells assessed as cell growth inhibition incubated for 72 hrs by alamar blue dye based assay; assay type: functional
SF-539 = assay: Antiproliferative activity against human SF-539 cells assessed as cell growth inhibition incubated for 72 hrs by alamar blue dye based assay; assay type: functional
SNB-75 = assay: Antiproliferative activity against human SNB-75 cells assessed as cell growth inhibition incubated for 72 hrs by alamar blue dye based assay; assay type: functional
U-251 = assay: Antiproliferative activity against human U-251 cells assessed as cell growth inhibition incubated for 72 hrs by alamar blue dye based assay; assay type: functional
Malme-3M = assay: Antiproliferative activity against human Malme-3M cells assessed as cell growth inhibition incubated for 72 hrs by alamar blue dye based assay; assay type: functional
M14 = assay: Antiproliferative activity against human M14 cells assessed as cell growth inhibition incubated for 72 hrs by alamar blue dye based assay; assay type: functional
SK-MEL-2 = assay: Antiproliferative activity against human SK-MEL-2 cells assessed as cell growth inhibition incubated for 72 hrs by alamar blue dye based assay; assay type: functional
SK-MEL-5 = assay: Antiproliferative activity against human SK-MEL-5 cells assessed as cell growth inhibition incubated for 72 hrs by alamar blue dye based assay; assay type: functional
UACC-257 = assay: Antiproliferative activity against human UACC-257 cells assessed as cell growth inhibition incubated for 72 hrs by alamar blue dye based assay; assay type: functional
UACC-62 = assay: Antiproliferative activity against human UACC-62 cells assessed as cell growth inhibition incubated for 72 hrs by alamar blue dye based assay; assay type: functional
IGROV-1 = assay: Antiproliferative activity against human IGROV-1 cells assessed as cell growth inhibition incubated for 72 hrs by alamar blue dye based assay; assay type: functional
OVCAR-3 = assay: Antiproliferative activity against human OVCAR-3 cells assessed as cell growth inhibition incubated for 72 hrs by alamar blue dye based assay; assay type: functional
OVCAR-4 = assay: Antiproliferative activity against human OVCAR-4 cells assessed as cell growth inhibition incubated for 72 hrs by alamar blue dye based assay; assay type: functional
OVCAR-5 = assay: Antiproliferative activity against human OVCAR-5 cells assessed as cell growth inhibition incubated for 72 hrs by alamar blue dye based assay; assay type: functional
OVCAR-8 = assay: Antiproliferative activity against human OVCAR-8 cells assessed as cell growth inhibition incubated for 72 hrs by alamar blue dye based assay; assay type: functional
NCI/ADR-RES = assay: Antiproliferative activity against human NCI-ADR-RES cells assessed as cell growth inhibition incubated for 72 hrs by alamar blue dye based assay; assay type: functional
786-0 = assay: Antiproliferative activity against human 786-0 cells assessed as cell growth inhibition incubated for 72 hrs by alamar blue dye based assay; assay type: functional
ACHN = assay: Antiproliferative activity against human ACHN cells assessed as cell growth inhibition incubated for 72 hrs by alamar blue dye based assay; assay type: functional
CAKI-1 = assay: Antiproliferative activity against human CAKI-1 cells assessed as cell growth inhibition incubated for 72 hrs by alamar blue dye based assay; assay type: functional
RXF 393 = assay: Antiproliferative activity against human RXF 393 cells assessed as cell growth inhibition incubated for 72 hrs by alamar blue dye based assay; assay type: functional
SN12C = assay: Antiproliferative activity against human SN12C cells assessed as cell growth inhibition incubated for 72 hrs by alamar blue dye based assay; assay type: functional
TK-10 = assay: Antiproliferative activity against human TK-10 cells assessed as cell growth inhibition incubated for 72 hrs by alamar blue dye based assay; assay type: functional
UO-31 = assay: Antiproliferative activity against human UO-31 cells assessed as cell growth inhibition incubated for 72 hrs by alamar blue dye based assay; assay type: functional
PC-3 = assay: Antiproliferative activity against human PC-3 cells assessed as cell growth inhibition incubated for 72 hrs by alamar blue dye based assay; assay type: functional
DU-145 = assay: Antiproliferative activity against human DU-145 cells assessed as cell growth inhibition incubated for 72 hrs by alamar blue dye based assay; assay type: functional
MDA-MB-231 = assay: Antiproliferative activity against human MDA-MB-231 cells assessed as cell growth inhibition incubated for 72 hrs by alamar blue dye based assay; assay type: functional
T47D = assay: Antiproliferative activity against human T47D cells assessed as cell growth inhibition incubated for 72 hrs by alamar blue dye based assay; assay type: functional
MDA-MB-468 = assay: Antiproliferative activity against human MDA-MB-468 cells assessed as cell growth inhibition incubated for 72 hrs by alamar blue dye based assay; assay type: functional

O=C(NO)c1ccc(CNC(=O)[C@H]2Cc3c([nH]c4ccccc34)[C@H](c3ccc(Cl)cc3)N2)cc1 showed an IC50 (RPMI-8226; RPMI-8226, 72 h) of 620 nM, a GI50 (RPMI-8226) of 564 nM and a GI50 (HL-60(TB)) of 706 nM. For the same compound, the GI50 (K562) was 720 nM, the GI50 (MOLT-4) was 563 nM and the GI50 (SR) was 1150 nM. It also gave a GI50 (A549) of 3970 nM, a GI50 (EKVX) of 2650 nM and a GI50 (HOP-62) of 1270 nM. The GI50 (NCI-H226) was 2270 nM, the GI50 (NCI-H23) was 1330 nM and the GI50 (NCI-H322M) was 1620 nM. The GI50 (NCI-H522) was 584 nM, the GI50 (COLO 205) was 719 nM and the GI50 (HCT-116) was 609 nM. For the same compound, the GI50 (HCT-15) was 4260 nM, the GI50 (HT-29) was 838 nM and the GI50 (KM12) was 2360 nM. It also gave a GI50 (SW-620) of 687 nM, a GI50 (SF-268) of 2920 nM and a GI50 (SF-295) of 1810 nM. It also gave a GI50 (SF-539) of 1140 nM, a GI50 (SNB-75) of 2260 nM and a GI50 (U-251) of 1210 nM. For the same compound, the GI50 (Malme-3M) was 410 nM, the GI50 (M14) was 2200 nM and the GI50 (SK-MEL-2) was 2770 nM. The GI50 (SK-MEL-5) was 721 nM, the GI50 (UACC-257) was 1230 nM and the GI50 (UACC-62) was 538 nM. For the same compound, the GI50 (IGROV-1) was 1200 nM, the GI50 (OVCAR-3) was 1230 nM and the GI50 (OVCAR-4) was 3730 nM. It also gave a GI50 (OVCAR-5) of 456 nM, a GI50 (OVCAR-8) of 942 nM and a GI50 (NCI/ADR-RES) of 3350 nM. For the same compound, the GI50 (786-0) was 3710 nM, the GI50 (ACHN) was 3050 nM and the GI50 (CAKI-1) was 2330 nM. For the same compound, the GI50 (RXF 393) was 455 nM, the GI50 (SN12C) was 2410 nM and the GI50 (TK-10) was 1510 nM. It also gave a GI50 (UO-31) of 2640 nM, a GI50 (PC-3) of 1760 nM and a GI50 (DU-145) of 1080 nM. The GI50 (MDA-MB-231) was 887 nM, the GI50 (T47D) was 600 nM and the GI50 (MDA-MB-468) was 380 nM.
COc1ccc(CN2[C@@H](C(=O)NCc3ccc(C(=O)NO)cc3)Cc3c([nH]c4ccccc34)[C@@H]2C2CC2)cc1 showed a GI50 (RPMI-8226) of 2920 nM, a GI50 (HL-60(TB)) of 2730 nM and a GI50 (K562) of 1670 nM. For the same compound, the GI50 (MOLT-4) was 1850 nM, the GI50 (SR) was over 19800 nM and the GI50 (A549) was 3540 nM. It also gave a GI50 (EKVX) of 3200 nM, a GI50 (HOP-62) of 3480 nM and a GI50 (NCI-H226) of 3410 nM. For the same compound, the GI50 (NCI-H23) was 2750 nM, the GI50 (NCI-H322M) was 4250 nM and the GI50 (NCI-H522) was 965 nM. It also gave a GI50 (COLO 205) of 3470 nM, a GI50 (HCT-116) of 2080 nM and a GI50 (HCT-15) of 3750 nM. For the same compound, the GI50 (HT-29) was 4840 nM, the GI50 (KM12) was 3510 nM and the GI50 (SW-620) was 2260 nM. It also gave a GI50 (SF-268) of 4400 nM, a GI50 (SF-295) of 2920 nM and a GI50 (SF-539) of 2480 nM. It also gave a GI50 (SNB-75) of 1130 nM, a GI50 (U-251) of 2660 nM and a GI50 (Malme-3M) of 847 nM. It also gave a GI50 (M14) of 4070 nM, a GI50 (SK-MEL-2) of 4110 nM and a GI50 (SK-MEL-5) of 2600 nM. The GI50 (UACC-257) was 2390 nM, the GI50 (UACC-62) was 1550 nM and the GI50 (IGROV-1) was 2600 nM. For the same compound, the GI50 (OVCAR-3) was 3410 nM, the GI50 (OVCAR-4) was 4740 nM and the GI50 (OVCAR-5) was 1870 nM. For the same compound, the GI50 (OVCAR-8) was 2560 nM, the GI50 (NCI/ADR-RES) was 4050 nM and the GI50 (786-0) was 3980 nM. It also gave a GI50 (ACHN) of 3520 nM, a GI50 (CAKI-1) of 2400 nM and a GI50 (RXF 393) of 797 nM. The GI50 (SN12C) was 3860 nM, the GI50 (TK-10) was 3170 nM and the GI50 (UO-31) was 3000 nM. The GI50 (PC-3) was 3120 nM, the GI50 (DU-145) was 4380 nM and the GI50 (MDA-MB-231) was 2430 nM. For the same compound, the GI50 (T47D) was 3820 nM and the GI50 (MDA-MB-468) was 1000 nM.
